Experiment [1] deals with anti-FLAG M2 monoclonal antibody. The experiment in a line: FPA analysis of FLAG model peptide tracers with anti-FLAG antibody. The conditions noted are these: TBS pH 7.2. The format is binding. The text has this:
The FLAG peptide (a well known tag, e.g. used for immuno affinity purification) was used as a model peptide to develop a labelling strategy for peptide tracers which allows chemical linking of a fluorophore to the peptide to reduce or inhibit rotation of the fluorophore relative to the peptide. The FLAG peptide and an elongated FLAG peptide were used to and coupled to 5-Carboxyfluorescein (5-CF) with a linker containing the following amino acid composition
FPA analysis of the FLAG Model peptide shown in Table 1 was performed by the following procedure.
The FLAG Model peptide tracers were diluted in TBS (containing 25 mM Tris, 0.15M NaCl, NP40 0.05%, pH 7.2) at a concentration of 8.1 nM or 2.7 nM, respectively in a single well of a black colored 96-well plate. The plate was incubated for 2 minutes at room temperature on an orbital shaker set at 1350 rpm and then incubated for another minute without shaking. Blank measurement of the sample was then performed by reading the fluorescence polarisation in a fluorescence reader (Safir2, Tecan, Switzerland) with excitation and emission wavelength set at 470 nm and 520 nm, respectively.
Then, 1, 3 or 10 molar equivalence of the anti-FLAG M2 monoclonal antibody (Sigma, Switzerland), respectively, were added and the plate was incubated at room temperature with shaking (1350 rpm) for 3 minutes and then for an additional minute without shaking. Then the plate was measured.
(§1) The mP values were calculated according to the following formula: […]
(§2) The ΔmP values were obtained by subtracting the mP values of the negative serum from the positive sera:
ΔmP=mPpositive serum−mPnegative serum

Experiment [2] relates to Trichinella positive serum (antibodies against Trichinella). The experiment in a line: FPA discrimination between Trichinella positive and Trichinella negative serum. The format is binding. The conditions noted are these: mP positive serum minus mP negative serum; tracer 5 nM; buffer differs per tracer as listed in Table 2. As to the method: Table 2 depicts for some of the Trichinella peptides their ability to discriminate between a Trichinella positive and a Trichinella negative serum sample using fluorescence polarisation assay (FPA).
FPA analysis of the tracers shown in Table 2 was performed by the following procedure. A […] aliquot of the positive or negative serum was diluted with […] of buffer (PBS with detergent as indicated in Table 2) in a single well of a black coloured 96-well plate. The plate was incubated for 2 minutes at room temperature on an orbital shaker set at 1350 rpm and then incubated for another minute without shaking. Blank measurement of the sample was then performed by reading the fluorescence polarisation in a fluorescence reader (Safire2, Tecan, Switzerland) with excitation and emission wavelength set at 470 nm and 520 nm, respectively. Then, […] tracer was added to the reaction mixture to a final concentration of 5 nM and the plate was incubated at room temperature with shaking (1350 rpm) for 15 minutes and then for an additional minute without shaking. Then the plate was measured.
as §1, §2
ΔmP=mPpositive serum=mPnegative serum

Experiment [3] concerns Trichinella positive sera (antibodies against Trichinella). As to the kind of experiment: ELISA discrimination between Trichinella positive and negative serum using SS2 peptides. The format is binding, pig. As to conditions: peptide-coated plate; serial two fold dilutions of serum; read at 405 nm; FIGS. 8a and b. As to the method:
FIGS. 8a and b show the results of 2 of the preferred SS2 peptides (SEQ IDs NO 7 and 8) tested in ELISA assays. […] Serial two fold dilutions of the serum sample were tested.
Single wells of a 96-well microtitre plate were coated with the SS2 peptides ([…]) at a concentration of […] in carbonate buffer 0.1 M (pH 9.5) overnight at 4° C. The plate was washed 4 times with 0.05% Tween 80 and then blocked with a PBS buffer containing 2% I-block and 0.1% Tween 20 for 90 minutes at 25° C.±3° C. Pig sera were diluted 50-fold in phosphate buffered saline and serial 2-fold dilutions were incubated in the microtitre plate with shaking (500 rpm) for 2 hours at room temperature. The plates were washed 4 times with 0.05% Tween 80 Detection of the bound antibodies was performed by incubation with a goat anti-pig IgG(Fc)-POD conjugate (Bethyl Laboratories, USA) at a concentration of 1.3 ug/ml for 1 h at RT with shaking (500 rpm). Following four more washes, 2′-azino-bis(3-ethylbenzthiazoline-6-sulphonic acid) (ABTS) substrate solution was added and incubated for 30 minutes, colour development was measured in a ELISA reader (Tecan, Switzerland) at a wavelength of 405 nm.
(In general: An ELISA detects its analyte on a solid surface through an enzyme-linked reagent.)

Setting [4] is: tracer 2.7 nM, 1 molar equivalent anti-FLAG antibody.
Setting [5] is: tracer 2.7 nM, 3 molar equivalents anti-FLAG antibody.
The mark [6] stands for this setting: tracer 2.7 nM, 10 molar equivalents anti-FLAG antibody.
[7] abbreviates: tracer 8.1 nM, 1 molar equivalent anti-FLAG antibody.
Setting [8] is: tracer 8.1 nM, 3 molar equivalents anti-FLAG antibody.
Where [9] appears, read: tracer 8.1 nM, 10 molar equivalents anti-FLAG antibody.

Where no end group is shown, it is not given here. The star is where a group is joined. 5FAM = O=C1OC2(c3ccc(O)cc3Oc3cc(O)ccc32)c2ccc(C(=O)*)cc21

Take “5-CF-Pro-Gly(9)-Asp-Tyr-Lys-Asp-Asp-Asp-Asp-Lys [S-CF-Pro-Gly(9)-FLAG]”: the ΔmP values in experiment [1] (setting [4]) came out at 5 mP; in experiment [1] (setting [5]), 15 mP; in experiment [1] (setting [6]), 33 mP; in experiment [1] (setting [7]), 14 mP; in experiment [1] (setting [8]), 33 mP; in experiment [1] (setting [9]), 62 mP.

In the case of “5-CF-Trp(2)-Gly(9)-Asp-Tyr-Lys-Asp-Asp-Asp-Asp-Lys (5FAM-WWGGGGGGGGGDYKDDDDK) [5-CF-Trp(2)-Gly(9)-FLAG, FLAG model peptide tracer coupled to 5-Carboxyfluorescein via Trp-Trp linker]”, the ΔmP values was 5 mP in experiment [1] (setting [4]); 35 mP in experiment [1] (setting [5]); 97 mP in experiment [1] (setting [6]); 37 mP in experiment [1] (setting [7]); 78 mP in experiment [1] (setting [8]); 124 mP in experiment [1] (setting [9]).

In the case of “5-CF-Trp-Gly(9)-Asp-Tyr-Lys-Asp-Asp-Asp-Asp-Lys (5FAM-WGGGGGGGGGDYKDDDDK) [5-CF-Trp-Gly(9)-FLAG, FLAG model peptide tracer coupled to 5-Carboxyfluorescein via Trp linker]”, the ΔmP values in experiment [1] (setting [4]) is 9 mP; in experiment [1] (setting [5]), 27 mP; in experiment [1] (setting [6]), 55 mP; in experiment [1] (setting [7]), 19 mP; in experiment [1] (setting [8]), 50 mP; in experiment [1] (setting [9]) it was 86 mP.

On to “ALRLKRFAK (listed as Trichinella spiralis) [SEQ ID NO 28, peptide of Trichinella spiralis 53 kDa excretory/secretory antigen]”, for which the ΔmP in experiment [2] stood at 41 mP.

As to “KEADKSALRL KRFAKPPKGF F (KEADKSALRLKRFAKPPKGFF; listed as Trichinella spiralis) [SEQ ID NO 27, peptide of Trichinella spiralis 53 kDa excretory/secretory antigen]”, the ΔmP in experiment [2] is reported as 31 mP.

The substance “KPFGDEIDRI LRKAF (KPFGDEIDRILRKAF; listed as Trichinella spiralis) [SEQ ID NO 26, peptide of Trichinella spiralis 53 kDa excretory/secretory antigen]” returned a ΔmP in experiment [2] of 31 mP.

In experiment [2], “LSTASRPTNP YTGSRPTSPS SGSRP (LSTASRPTNPYTGSRPTSPSSGSRP; listed as Trichinella spiralis) [SEQ ID NO 7, peptide of Trichinella spiralis newborn larvae-specific protein SS2]” displayed a ΔmP of 20 mP. Also, the “ability to discriminate between negative and positive sera in ELISA” value in experiment [3] was “able to discriminate between negative and positive sera”.

“MHKITHKSIV SRHTFAVYLL VSGQK (MHKITHKSIVSRHTFAVYLLVSGQK; listed as Trichinella spiralis) [SEQ ID NO 5, peptide of Trichinella spiralis newborn larvae-specific protein SS2; used as FPA tracer]”: in experiment [2], the ΔmP is 39 mP.

The substance “NNYRGRQGIA GLGML (NNYRGRQGIAGLGML; listed as Trichinella spiralis) [SEQ ID NO 23, peptide of Trichinella spiralis 53 kDa excretory/secretory antigen]” yielded a ΔmP in experiment [2] of 23 mP.

For the substance “PTYPSSGSRP TYPSSGSRP (PTYPSSGSRPTYPSSGSRP; listed as Trichinella spiralis) [SEQ ID NO 9, peptide of Trichinella spiralis newborn larvae-specific protein SS2]”, in experiment [2], the ΔmP is reported as 66 mP.

In experiment [2], “PTYPSSGSRP TYPSSGSRPT YPYTG (PTYPSSGSRPTYPSSGSRPTYPYTG; listed as Trichinella spiralis) [SEQ ID NO 8, peptide of Trichinella spiralis newborn larvae-specific protein SS2]” came in with a ΔmP of 66 mP. The “ability to discriminate between negative and positive sera in ELISA” value in experiment [3] was “able to discriminate between negative and positive sera”.

“QNERQFDENK LKKLLKPLG (QNERQFDENKLKKLLKPLG; listed as Trichinella spiralis) [SEQ ID NO 20, peptide of Trichinella spiralis 53 kDa excretory/secretory antigen]” displayed a ΔmP in experiment [2] of 28 mP.

Turning to “QNERQFDENK LKKLLKPLGK LYKTPSD (QNERQFDENKLKKLLKPLGKLYKTPSD; listed as Trichinella spiralis) [SEQ ID NO 19, peptide of Trichinella spiralis 53 kDa excretory/secretory antigen]”, in experiment [2], the ΔmP was 33 mP.

As to “VGGTDVRPHSH PWQIQLLKSET G (VGGTDVRPHSHPWQIQLLKSETG; listed as Trichinella spiralis) [SEQ ID NO 6, peptide of Trichinella spiralis newborn larvae-specific protein SS2; used as FPA tracer]”, in experiment [2], the ΔmP amounted to 35 mP.

In turn, “VVTIFRKNGK TTEVLSL (VVTIFRKNGKTTEVLSL; listed as Trichinella spiralis) [SEQ ID NO 24, peptide of Trichinella spiralis 53 kDa excretory/secretory antigen]” yielded a ΔmP in experiment [2] of 57 mP.

On to “VVYSKTSSSR LEMYGSF (VVYSKTSSSRLEMYGSF; listed as Trichinella spiralis) [SEQ ID NO 16, peptide of Trichinella spiralis 43 kDa secreted glycoprotein]”, for which the ΔmP in experiment [2] was 20 mP.

The record behind these values is patent publication US20100190182A1, “DIAGNOSTIC COMPOSITION AND METHOD FOR THE DETECTION OF A TRICHINELLA INFECTION” (priority 2007, published 2010).
